The source of these data is patent US20230227466A1, “SUBSTITUTED THIENOPYRIMIDINES THAT INTERACT WITH THE RAS SUPERFAMILY FOR THE TREATMENT OF CANCERS, INFLAMMATORY DISEASES, RASOPATHIES, AND FIBROTIC DISEASE” (SHY Therapeutics, LLC, priority 2020, published 2023).

Each structure is given as a SMILES string. Like-named read-outs stand apart in the source and are kept apart here. A value given as a limit tells only on which side of the number the result lay.

By IC50 is commonly meant the point on the concentration scale where inhibition reaches its midpoint.

One experiment has as its target T1, KRas G12C mutant (Homo sapiens, UniProt P01116, G12C).
T1 construct: made in house
As to the kind of experiment: Ras GTP binding domain inhibition assay (labeled-GTP competition, cell-free). Put shortly:
(§1)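 Immobilized His-tagged protein (Ni plate, 10-30 μg/mL, overnight 4° C); compound 20 μM or dilution series, 1% DMSO, 3 h RT, ±Sos 556-1049 last hour; Cy3/Cy5-GTP 100 nM, 45 min RT; 3× wash; bound fluorescence read.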

The target of another experiment is T2, KRas G12D mutant (Homo sapiens, UniProt P01116, G12D).
T2 construct: made in house
Described as above. The gist of the method: as §1

In a further experiment the target is T3, KRas Q61H mutant (Homo sapiens, UniProt P01116, Q61H).
T3 construct: made in house
The description is as above. Put shortly:
as §1

For experiment [1], the system named is Akt phosphorylation in Panc-1 cells. In words: Western AKT cell-based phosphorylation assay. Also on record: species or system human. The following applies: at 10 μM, values in brackets < > are activation %, not inhibition. On the procedure: Human Tumor-Derived Pancreatic Cancer Cell Line Panc-1 was Purchased from
American Type Culture Collection and grown in complete DMEM-High Glucose supplemented with penicillin (100 U/mL), streptomycin (100 μg/mL), and 10% heat-inactivated FBS at 37° C. in a humidified incubator with 5% CO2.
Method: Cells were plated at 350000 cells/well density in a 12-well plate, allowed 3 hours to adhere to the plate, then starved in the appropriate medium in the presence of 0.5% FBS overnight. The small molecules to be tested were added to the cells in the final concentration of 10 μM in the presence of 0.3% DMSO for 6 hours incubation at 37° C. Next, cells were stimulated with 1.5 ng/ml EGF for 15 minutes then cells were lysed with lysis buffer containing 1% Triton X-100, EDTA, and Halt™ Protease & Phosphatase Inhibitor Cocktail (Thermo Scientific). Protein concentration was assessed by BCA protein assay (Thermo Scientific). Phosphorylation level of Akt was determined by western blot.
Western blot protocol: Equal amounts of protein (15-50 μg) were separated by SDS-PAGE and transferred to nitrocellulose membranes (Invitrogen by Thermo Fisher Scientific). The membrane was stained with Ponceau S Stain (Boston BioProducts) to verify uniform protein loading. Membranes were blocked with 10% milk and phosphorylation levels of Akt were assessed by incubating overnight at 4° C. with anti-phospho-Akt (Ser473) antibody (Cell Signaling) followed by HRP-conjugated secondary antibody (Jackson Immunoresearch, West Grove, Pa.). Bands were incubated in Amersham ECL Prime Western Blotting Detection Reagent (GE Healthcare) and visualized using the ChemiDoc MP imaging system (Bio-Rad).

The target in a further experiment is KRas wild type (Homo sapiens, UniProt P01116). In words: Ras GTP binding domain inhibition assay (labeled-GTP competition, cell-free). Also on record: made in house. The gist of the method: as §1
The next experiment has as its target Rac-1 (Homo sapiens, UniProt P63000). The experiment is described as above. The arrangement: made in house. Put shortly: as §1
In a further experiment the target is Rho-A (Homo sapiens, UniProt P61586). The description is as above. The arrangement: made in house. Put shortly: as §1
Where [2] appears, read: with SOS, read-out: KRas G12C mutant + SOS: % inh.
The mark [3] stands for this setting: without SOS, read-out: KRas G12C mutant: % inh.
Where [4] appears, read: with SOS, read-out: KRas G12D mutant + SOS: % inh.
The mark [5] stands for this setting: without SOS, read-out: KRas G12D mutant: % inh.
[6] abbreviates: with SOS, read-out: KRas Q61H mutant + SOS: % inh.
The mark [7] stands for this setting: without SOS, read-out: KRas Q61H mutant: % inh.
Setting [8] is: with SOS, read-out: KRas wild type + SOS: % inh.
[9] abbreviates: without SOS, read-out: KRas wild type: % inh.
Setting [10] is: with SOS, read-out: Rac-1 + SOS: % inh.
Where [11] appears, read: without SOS, read-out: Rac-1: % inh.
The mark [12] stands for this setting: with SOS, read-out: Rho-A + SOS: % inh.
The mark [13] stands for this setting: without SOS, read-out: Rho-A: % inh.

For `CO[C@H]1CC[C@@H](Nc2nc(C(=O)NC(C)C)nc3sccc23)C1` (racemic) [Compound 13, Rac-N-isopropyl-4-(((1R,3S)-3-methoxycyclopentyl)amino)thieno[2,3-d]pyrimidine-2-carboxamide], the inhibition at 20 µM at KRas G12C mutant (setting [2]) was 0%; on KRas G12C mutant (setting [3]), 0%; at KRas G12D mutant (setting [4]), 0%; at KRas G12D mutant (setting [5]) it was 1 to 25%; on KRas Q61H mutant (setting [6]), 0%; at KRas Q61H mutant (setting [7]) it was 0%. The inhibition at 20 µM at KRas wild type (setting [8]) is 1 to 25%; on KRas wild type (setting [9]) it was 0%; at Rac-1 (setting [10]), 0%; on Rac-1 (setting [11]), 1 to 25%; on Rho-A (setting [12]), 1 to 25%; at Rho-A (setting [13]) it was 1 to 25%. For the same compound, the IC50 at KRas Q61H mutant (with SOS) is more than 10 µM. Also, the “% inh of AKT phosphorylation in PANC-1” value in experiment [1] was 0 (0% inhibition).
On to `COCCNC(=O)c1nc(N[C@@H]2CC[C@H](OC)C2)c2ccsc2n1` (racemic) [Compound 14, rac-4-(((1R,3S)-3-Methoxycyclopentyl)amino)-N-(2-methoxyethyl)thieno[2,3-d]pyrimidine-2-carboxamide], for which the inhibition at 20 µM at KRas G12C mutant (setting [2]) is 0%; at KRas G12C mutant (setting [3]), 0%; on KRas G12D mutant (setting [4]), 1 to 25%; on KRas G12D mutant (setting [5]), 1 to 25%; on KRas Q61H mutant (setting [6]) it was 1 to 25%; on KRas Q61H mutant (setting [7]) it was 0%. Moreover, the inhibition at 20 µM is 0% at KRas wild type (setting [8]); 0% on KRas wild type (setting [9]); 0% on Rac-1 (setting [10]); 0% on Rac-1 (setting [11]); 1 to 25% at Rho-A (setting [12]); 1 to 25% at Rho-A (setting [13]). Further, the IC50 at KRas Q61H mutant (with SOS) is more than 10 µM. In experiment [1], the “% inh of AKT phosphorylation in PANC-1” value is reported as 0 (0% inhibition).
On to `CO[C@H]1CC[C@@H](Nc2nc(C(=O)Nc3ccccc3)nc3sccc23)C1` (racemic) [Compound 15, rac-4-(((1R,3S)-3-Methoxycyclopentyl)amino)-N-phenylthieno[2,3-d]pyrimidine-2-carboxamide], for which the inhibition at 20 µM on KRas G12C mutant (setting [2]) is 0%; on KRas G12C mutant (setting [3]), 1 to 25%; at KRas G12D mutant (setting [4]) it was 0%; at KRas G12D mutant (setting [5]) it was 0%; on KRas Q61H mutant (setting [6]), 0%; at KRas Q61H mutant (setting [7]), 1 to 25%. Besides, the inhibition at 20 µM on KRas wild type (setting [8]) was 0%; at KRas wild type (setting [9]), 1 to 25%; at Rac-1 (setting [10]), 0%; at Rac-1 (setting [11]), 0%; at Rho-A (setting [12]) it was 0%; on Rho-A (setting [13]), 0%. The IC50 on KRas Q61H mutant (with SOS) is more than 10 µM. Moreover, in experiment [1], the “% inh of AKT phosphorylation in PANC-1” value is on record as 0 (0% inhibition).
For `CO[C@H]1CC[C@@H](Nc2nc(C(=O)Nc3ccccn3)nc3sccc23)C1` (racemic) [Compound 16, rac-4-(((1R,3S)-3-Methoxycyclopentyl)amino)-N-(pyridin-2-yl)thieno[2,3-d]pyrimidine-2-carboxamide], the inhibition at 20 µM on KRas G12C mutant (setting [2]) is 1 to 25%; on KRas G12C mutant (setting [3]), 1 to 25%; on KRas G12D mutant (setting [4]) it was 1 to 25%; on KRas G12D mutant (setting [5]), 1 to 25%; at KRas Q61H mutant (setting [6]), 0%; on KRas Q61H mutant (setting [7]), 1 to 25%. Besides, the inhibition at 20 µM was 0% on KRas wild type (setting [8]); 1 to 25% at KRas wild type (setting [9]); 0% at Rac-1 (setting [10]); 1 to 25% at Rac-1 (setting [11]); 1 to 25% on Rho-A (setting [12]); 0% on Rho-A (setting [13]). Further, the 50% inhibitory concentration (IC50) on KRas Q61H mutant (with SOS) was more than 10 µM. The “% inh of AKT phosphorylation in PANC-1” value in experiment [1] is recorded as 0 (0% inhibition).
For `CO[C@H]1CC[C@@H](Nc2nc(C(N)=O)nc3sc(-c4ccn(C(C)C)n4)cc23)C1` (racemic) [Compound 17, Rac-6-(1-isopropyl-1H-pyrazol-3-yl)-4-(((1R,3S)-3-methoxycyclopentyl)amino)thieno[2,3-d]pyrimidine-2-carboxamide], the inhibition at 20 µM at KRas G12C mutant (setting [2]) is 0%; on KRas G12C mutant (setting [3]), 0%; at KRas G12D mutant (setting [4]), 0%; at KRas G12D mutant (setting [5]) it was 0%; at KRas Q61H mutant (setting [6]), 0%; at KRas Q61H mutant (setting [7]) it was 1 to 25%. Moreover, the inhibition at 20 µM at KRas wild type (setting [8]) is 1 to 25%; at KRas wild type (setting [9]), 1 to 25%; on Rac-1 (setting [10]) it was 1 to 25%; at Rac-1 (setting [11]), 0%; at Rho-A (setting [12]) it was 0%; at Rho-A (setting [13]), 26 to 50%. The half-maximal inhibitory concentration (IC50) at KRas Q61H mutant (with SOS) is more than 10 µM. Moreover, the “% inh of AKT phosphorylation in PANC-1” value in experiment [1] is recorded as 0 (0% inhibition).
`CO[C@H]1CC[C@@H](Nc2nc(C(=O)N3CCCC3)nc3sccc23)C1` (racemic) [Compound 25, Rac-(4-(((1R,3S)-3-Methoxycyclopentyl)amino)thieno[2,3-d]pyrimidin-2-yl)(pyrrolidin-1-yl)methanone]: the inhibition at 20 µM on KRas G12C mutant (setting [2]), on KRas G12C mutant (setting [3]), at KRas G12D mutant (setting [4]), on KRas G12D mutant (setting [5]), on KRas Q61H mutant (setting [6]) and on KRas Q61H mutant (setting [7]) was 0% throughout. Further, the inhibition at 20 µM on KRas wild type (setting [8]), at KRas wild type (setting [9]), at Rac-1 (setting [10]), on Rac-1 (setting [11]), at Rho-A (setting [12]) and at Rho-A (setting [13]) was 0% in each case. In addition, in experiment [1], the “% inh of AKT phosphorylation in PANC-1” value was 0 (0% inhibition).
Take `CO[C@@H]1CC[C@@H](Nc2nc(-c3nccn3C)nc3sc(-c4ccn(C(C)C)n4)c(C)c23)C1` (racemic) [Compound 33, rac-6-(1-Isopropyl-1H-pyrazol-3-yl)-N-((1R,3R)-3-methoxycyclopentyl)-5-methyl-2-(1-methyl-1H-imidazol-2-yl)thieno[2,3-d]pyrimidin-4-amine]: the inhibition at 20 µM on KRas G12C mutant (setting [2]) fell in the range of 76 to 100%; on KRas G12C mutant (setting [3]), 76 to 100%; on KRas G12D mutant (setting [4]) it was 76 to 100%; on KRas G12D mutant (setting [5]) it was 51 to 75%; on KRas Q61H mutant (setting [6]), 76 to 100%; at KRas Q61H mutant (setting [7]), 76 to 100%. Moreover, the inhibition at 20 µM on KRas wild type (setting [8]) was 76 to 100%; on KRas wild type (setting [9]) it was 76 to 100%; on Rac-1 (setting [10]) it was 51 to 75%; on Rac-1 (setting [11]) it was 51 to 75%; at Rho-A (setting [12]), 76 to 100%; on Rho-A (setting [13]), 76 to 100%. In addition, the “% inh of AKT phosphorylation in PANC-1” value in experiment [1] is 0 (0% inhibition).
For `COC1CCN(c2nc(-c3nccn3C)nc3sc(-c4ccn(C(C)C)n4)c(C)c23)C1` (racemic) [Compound 34, rac-6-(1-Isopropyl-1H-pyrazol-3-yl)-4-(3-methoxypyrrolidin-1-yl)-5-methyl-2-(1-methyl-1H-imidazol-2-yl)thieno[2,3-d]pyrimidine], the inhibition at 20 µM on KRas G12C mutant (setting [2]), at KRas G12C mutant (setting [3]), at KRas G12D mutant (setting [4]), at KRas G12D mutant (setting [5]), at KRas Q61H mutant (setting [6]) and on KRas Q61H mutant (setting [7]) was 76 to 100% throughout. For the same compound, the inhibition at 20 µM on KRas wild type (setting [8]), at KRas wild type (setting [9]), on Rac-1 (setting [10]), at Rac-1 (setting [11]), at Rho-A (setting [12]) and on Rho-A (setting [13]) was 76 to 100% throughout. The “% inh of AKT phosphorylation in PANC-1” value in experiment [1] was 0 (0% inhibition).
